From PMC7175203, “PIRT the TRP Channel Regulating Protein Binds Calmodulin and Cholesterol-Like Ligands” (Biomolecules, 2020)
Bridge positions count the residues as written; N and C are the ends. Ends that are not written are not given here.

How the values were obtained:
[1] = biological target: Calmodulin (holo) (UniProt P0DP23); assay: tryptophan fluorescence; details: cited from earlier work
[2] = biological target: T1, PIRT (Phosphoinositide-interacting regulator of TRP) (Homo sapiens, UniProt P0C851); assay: microscale thermophoresis; […]-PIRT HSQC NMR chemical shift perturbation; assay type: binding
[3] = biological target: T1, PIRT (Phosphoinositide-interacting regulator of TRP); assay: microscale thermophoresis; assay type: binding
[4] = biological target: T2, Human PIRT (phosphoinositide-interacting regulator of TRP), fluorescently labeled for MST (human, UniProt P0C851 1-137, fluorescently labeled (dye and site not stated; by the protocol of ref. 24)); assay: MST; 200 nM fluorescently labeled PIRT, peptide hormone titrated; 0.1% DPC (w/v), 50 mM HEPES, pH 7.0; room temperature; triplicate; details: both partners purified
T2 construct: Measured in 0.1% DPC micelles; The His tag is named only for the pull-down; also called MST labeled PIRT; source: purified
T2 sequence (P0C851 whole entry): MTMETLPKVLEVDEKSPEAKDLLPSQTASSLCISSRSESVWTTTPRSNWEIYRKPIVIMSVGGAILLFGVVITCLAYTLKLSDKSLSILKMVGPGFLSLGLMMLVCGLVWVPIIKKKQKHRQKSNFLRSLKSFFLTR

T1 sequence (P0C851 whole entry): as above

For “TRPV1 distal C-terminus (from UniProt O35433)”, the Kd [1] is listed as 0.054 µM.

Molecule C[C@]12CC[C@@H]3c4ccc(O)cc4CC[C@H]3[C@@H]1CC[C@@H]2O [β-Estradiol] has a Kd [2] of 800 µM.

CC(C)CCC[C@@H](C)[C@H]1CC[C@H]2[C@@H]3CC=C4C[C@@H](OC(=O)CCC(=O)O)CC[C@]4(C)[C@H]3CC[C@]12C [cholesteryl-hemisuccinate] showed a Kd ([3]; read-out: Kd) of 103 µM.

For C[C@]12CCC(=O)C=C1CC[C@@H]1[C@@H]2[C@@H](O)C[C@@]2(C)[C@H]1CC[C@]2(O)C(=O)CO [Cortisol], the Kd ([3]; read-out: Kd) was 790 µM.

With C=C1CC[C@H](O)C/C1=C/C=C1\CCC[C@]2(C)[C@@H]([C@H](C)CCCC(C)C)CC[C@@H]12 [Cholecalciferol] the Kd [3] was 2100 µM.

B1: Oxytocin (peptide, UniProt P01178 20-28, looked up)
peptide: CYIQNCPLG-NH2
modifications: disulfide 1-6
notes: oxytocin, peptide hormone, cyclic nonapeptide cut from the oxytocin-neurophysin 1 precursor
With B1 the Kd [4] was 7 µM.
